Here are results for 17 compounds from ChEMBL document CHEMBL1909046, “DrugMatrix in vitro pharmacology data”.

Experiment [1] has as its target Beta-3 adrenergic receptor (Homo sapiens, UniProt P13945). As to the kind of experiment: DRUGMATRIX: Adrenergic beta3 radioligand binding (ligand: [125I] Cyanopindolol). The class given is cell membranes, HEK293, Membrane. Particulars: Not Active = under 50% inhibition at 10 µM.
The target in another experiment is T1, B2 bradykinin receptor (Homo sapiens, UniProt P30411). Also: in other assays of this panel Not Active means under 50% inhibition at 10 µM.
T1 sequence (P30411 whole entry): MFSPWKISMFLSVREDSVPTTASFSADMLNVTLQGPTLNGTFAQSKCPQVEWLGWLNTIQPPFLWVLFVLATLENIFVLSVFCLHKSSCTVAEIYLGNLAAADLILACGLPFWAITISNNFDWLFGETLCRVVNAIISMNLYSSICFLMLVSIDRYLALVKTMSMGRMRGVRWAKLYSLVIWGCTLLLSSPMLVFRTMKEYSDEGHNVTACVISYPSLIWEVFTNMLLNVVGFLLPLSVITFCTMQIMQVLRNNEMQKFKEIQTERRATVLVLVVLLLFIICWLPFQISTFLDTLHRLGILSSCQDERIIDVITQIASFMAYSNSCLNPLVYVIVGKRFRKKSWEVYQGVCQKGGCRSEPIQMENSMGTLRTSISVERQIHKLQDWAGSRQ
The class given is cell membranes, Membrane. The conditions noted are these: chem-1.

For another experiment, the target named is T2, Calcitonin receptor (Homo sapiens, UniProt P30988). Also: in other assays of this panel Not Active means under 50% inhibition at 10 µM.
T2 sequence (P30988 whole entry): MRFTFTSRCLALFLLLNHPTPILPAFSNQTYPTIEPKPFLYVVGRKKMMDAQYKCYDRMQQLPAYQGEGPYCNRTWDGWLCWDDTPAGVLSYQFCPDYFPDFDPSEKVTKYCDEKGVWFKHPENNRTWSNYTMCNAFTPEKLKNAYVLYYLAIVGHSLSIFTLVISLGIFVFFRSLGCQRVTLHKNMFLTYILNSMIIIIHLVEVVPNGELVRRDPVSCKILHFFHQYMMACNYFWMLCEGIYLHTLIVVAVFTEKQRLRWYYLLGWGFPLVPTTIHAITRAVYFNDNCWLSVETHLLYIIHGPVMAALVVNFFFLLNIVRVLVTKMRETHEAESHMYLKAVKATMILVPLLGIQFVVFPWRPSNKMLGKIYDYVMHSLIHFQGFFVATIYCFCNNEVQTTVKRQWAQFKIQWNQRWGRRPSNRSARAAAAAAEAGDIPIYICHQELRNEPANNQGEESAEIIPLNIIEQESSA
It is filed as cell membranes, Membrane. The conditions noted are these: t47d.

Experiment [2] has as its target T3, C-X-C chemokine receptor type 2 (Homo sapiens, UniProt P25025). Also: in other assays of this panel Not Active means under 50% inhibition at 10 µM.
T3 sequence (P25025 whole entry): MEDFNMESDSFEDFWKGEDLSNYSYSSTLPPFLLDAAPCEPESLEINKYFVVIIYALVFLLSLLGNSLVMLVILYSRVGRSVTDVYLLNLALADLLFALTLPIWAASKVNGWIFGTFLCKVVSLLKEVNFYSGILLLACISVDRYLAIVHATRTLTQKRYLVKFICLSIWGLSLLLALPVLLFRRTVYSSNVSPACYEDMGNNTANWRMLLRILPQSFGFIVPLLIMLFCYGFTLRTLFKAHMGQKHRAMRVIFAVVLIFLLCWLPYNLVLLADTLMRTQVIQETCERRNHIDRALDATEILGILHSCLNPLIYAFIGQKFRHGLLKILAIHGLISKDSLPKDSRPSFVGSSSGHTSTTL
It is filed as cell membranes, Membrane. Particulars: cho-k1.

The target in a further experiment is D(3) dopamine receptor (Homo sapiens, UniProt P35462). As to the kind of experiment: DRUGMATRIX: Dopamine D3 radioligand binding (ligand: [3H] Spiperone). It is filed as cell membranes, CHO, Membrane.
Sequence of D(3) dopamine receptor (P35462 whole entry): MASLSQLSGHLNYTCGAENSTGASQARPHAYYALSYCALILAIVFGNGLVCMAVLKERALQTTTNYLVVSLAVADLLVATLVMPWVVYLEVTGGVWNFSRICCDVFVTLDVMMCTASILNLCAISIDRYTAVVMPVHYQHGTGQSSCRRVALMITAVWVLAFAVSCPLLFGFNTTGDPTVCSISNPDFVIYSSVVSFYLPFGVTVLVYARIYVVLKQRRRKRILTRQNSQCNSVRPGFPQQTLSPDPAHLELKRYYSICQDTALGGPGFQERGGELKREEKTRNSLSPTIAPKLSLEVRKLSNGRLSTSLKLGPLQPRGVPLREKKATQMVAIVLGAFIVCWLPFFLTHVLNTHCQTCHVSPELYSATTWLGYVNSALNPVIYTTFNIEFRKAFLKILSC
In a further experiment the target is T4, D(4) dopamine receptor (Homo sapiens, UniProt P21917).
T4 sequence (P21917 whole entry): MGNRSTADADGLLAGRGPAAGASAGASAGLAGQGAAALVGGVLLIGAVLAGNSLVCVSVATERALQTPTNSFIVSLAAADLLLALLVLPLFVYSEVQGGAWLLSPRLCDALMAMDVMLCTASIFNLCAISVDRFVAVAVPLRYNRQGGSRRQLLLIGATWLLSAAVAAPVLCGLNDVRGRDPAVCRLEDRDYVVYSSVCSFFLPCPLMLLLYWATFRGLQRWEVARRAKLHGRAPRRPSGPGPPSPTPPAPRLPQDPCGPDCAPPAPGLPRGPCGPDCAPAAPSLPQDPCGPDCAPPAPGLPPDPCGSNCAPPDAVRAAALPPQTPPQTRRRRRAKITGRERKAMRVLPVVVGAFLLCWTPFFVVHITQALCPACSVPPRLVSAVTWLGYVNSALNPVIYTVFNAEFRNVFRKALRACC
As to the kind of experiment: DRUGMATRIX: Dopamine D4.2 radioligand binding (ligand: [3H] Spiperone). The class given is cell membranes, CHO-K1, Membrane. The conditions noted are these: cho-k1; Not Active = under 50% inhibition at 10 µM.

The nature of experiment [3]: DRUGMATRIX: Glutamate, NMDA, Phencyclidine radioligand binding (ligand: [3H] TCP). The conditions noted are these: Not Active = under 50% inhibition at 10 µM. The class given is cell membranes, Rattus norvegicus, Wistar, Cerebral cortex, Membrane.

Sequence of Beta-3 adrenergic receptor (P13945 whole entry): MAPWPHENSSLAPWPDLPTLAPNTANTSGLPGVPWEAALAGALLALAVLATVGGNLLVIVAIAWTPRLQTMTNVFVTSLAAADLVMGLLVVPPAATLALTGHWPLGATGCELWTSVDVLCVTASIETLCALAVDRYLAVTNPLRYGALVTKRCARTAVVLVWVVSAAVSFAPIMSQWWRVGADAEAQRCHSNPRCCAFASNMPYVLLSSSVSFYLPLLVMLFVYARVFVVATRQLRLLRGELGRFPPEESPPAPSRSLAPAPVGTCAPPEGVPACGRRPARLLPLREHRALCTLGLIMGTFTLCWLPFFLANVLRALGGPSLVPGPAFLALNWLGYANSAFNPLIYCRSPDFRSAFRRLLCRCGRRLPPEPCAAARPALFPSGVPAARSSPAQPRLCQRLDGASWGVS

Regarding `CC(C)C[C@H]1C(=O)N2CCC[C@H]2[C@]2(O)O[C@](NC(=O)[C@@H]3C=C4c5cccc6[nH]cc(c56)C[C@H]4N(C)C3)(C(C)C)C(=O)N12` [ERGOCRYPTINE], the IC50 in experiment [1] (read-out: IC50) was 2.5 µM; against B2 bradykinin receptor, “Not Active”; on Calcitonin receptor it was “Not Active”; in experiment [2], “Not Active”; on D(3) dopamine receptor (read-out: IC50) it was 0.000589 µM; on D(4) dopamine receptor it was “Not Active”. The IC50 entry in experiment [3] was “Not Active”. Besides, the Ki in experiment [1] (read-out: Ki) is 1.87 µM; at D(3) dopamine receptor (read-out: Ki), 0.0002 µM; in experiment [3], “Not Active”.
Turning to `C[C@]12CC[C@@H]3c4ccc(O)cc4CC[C@H]3[C@@H]1C[C@@H](O)[C@@H]2O` [ESTRIOL], the IC50 entry (in experiment [1] (hek293); at B2 bradykinin receptor; at Calcitonin receptor; in experiment [2]; on D(3) dopamine receptor (cho); at D(4) dopamine receptor) was “Not Active” each time. Besides, in experiment [3], the IC50 result is on record as “Not Active”. Further, the Ki result in experiment [3] was “Not Active”.
On to `C#C[C@]1(O)CC[C@H]2[C@@H]3CCC4=CC(=O)CC[C@]4(C)[C@H]3CC[C@@]21C` [ETHISTERONE], for which the IC50 result (in experiment [1] (hek293); on B2 bradykinin receptor; at Calcitonin receptor; in experiment [2]; on D(3) dopamine receptor (cho); on D(4) dopamine receptor) was “Not Active” throughout. In addition, the IC50 result in experiment [3] is on record as “Not Active”. Moreover, the Ki result in experiment [3] is listed as “Not Active”.
As for `CC(O)(P(=O)(O)O)P(=O)(O)O` [ETIDRONIC ACID], the IC50 entry (in experiment [1] (hek293); on B2 bradykinin receptor; on Calcitonin receptor; in experiment [2]; at D(3) dopamine receptor (cho); on D(4) dopamine receptor) was “Not Active” each time. Moreover, the IC50 entry in experiment [3] was “Not Active”. Besides, the Ki result in experiment [3] is “Not Active”.
`CC(C)(C(=O)O)c1ccc(C(O)CCCN2CCC(C(O)(c3ccccc3)c3ccccc3)CC2)cc1` (stereo not drawn) [FEXOFENADINE]: the IC50 entry (in experiment [1] (hek293); against B2 bradykinin receptor; on Calcitonin receptor; in experiment [2]; on D(3) dopamine receptor (cho); at D(4) dopamine receptor) was “Not Active” each time. Also, the IC50 result in experiment [3] is “Not Active”. Moreover, in experiment [3], the Ki result is “Not Active”.
Regarding `CN1CCN(c2c(F)cc3c(=O)c(C(=O)O)cn(CCF)c3c2F)CC1` [FLEROXACIN], the IC50 entry (in experiment [1] (hek293); at B2 bradykinin receptor; on Calcitonin receptor; in experiment [2]; on D(3) dopamine receptor (cho); at D(4) dopamine receptor) was “Not Active” each time. Moreover, the IC50 entry in experiment [3] was “Not Active”. Also, the Ki result in experiment [3] is recorded as “Not Active”.
In the case of `O=c1[nH]c(=O)n([C@H]2C[C@H](O)[C@@H](CO)O2)cc1F` [FLOXURIDINE], the IC50 entry (in experiment [1] (hek293); against B2 bradykinin receptor; on Calcitonin receptor; in experiment [2]; at D(3) dopamine receptor (cho); at D(4) dopamine receptor) was “Not Active” each time. Besides, in experiment [3], the 50% inhibitory concentration (IC50) result was “Not Active”. The Ki entry in experiment [3] is recorded as “Not Active”.
Turning to `COC(=O)Nc1nc2cc(C(=O)c3ccc(F)cc3)ccc2[nH]1` [FLUBENDAZOLE], the IC50 result (in experiment [1] (hek293); at B2 bradykinin receptor; at Calcitonin receptor; in experiment [2]; on D(3) dopamine receptor (cho); at D(4) dopamine receptor) was “Not Active” throughout. Besides, the IC50 result in experiment [3] is “Not Active”. Further, the Ki entry in experiment [3] is listed as “Not Active”.
In the case of `CC(=O)OCC(=O)[C@@]1(O)CC[C@H]2[C@@H]3CCC4=CC(=O)CC[C@]4(C)[C@@]3(F)[C@@H](O)C[C@@]21C` [FLUDROCORTISONE ACETATE], the IC50 result (in experiment [1] (hek293); against B2 bradykinin receptor; on Calcitonin receptor; in experiment [2]; at D(3) dopamine receptor (cho); at D(4) dopamine receptor) was “Not Active” throughout. The IC50 entry in experiment [3] is “Not Active”. Besides, the Ki result in experiment [3] is on record as “Not Active”.
As for `CCOC(=O)c1ncn2c1CN(C)C(=O)c1cc(F)ccc1-2` [FLUMAZENIL], the IC50 entry (in experiment [1] (hek293); against B2 bradykinin receptor; on Calcitonin receptor; in experiment [2]; on D(3) dopamine receptor (cho); at D(4) dopamine receptor) was “Not Active” each time. Further, the IC50 entry in experiment [3] is “Not Active”. Besides, the Ki result in experiment [3] is listed as “Not Active”.
As for `CC(=O)OCC(=O)[C@@]12OC(C)(C)O[C@@H]1C[C@H]1[C@@H]3C[C@H](F)C4=CC(=O)C=C[C@]4(C)[C@@]3(F)[C@@H](O)C[C@@]12C` [FLUOCINONIDE], the IC50 result (in experiment [1] (hek293); at B2 bradykinin receptor; at Calcitonin receptor; in experiment [2]; on D(3) dopamine receptor (cho); on D(4) dopamine receptor) was “Not Active” throughout. Besides, the IC50 result in experiment [3] is given as “Not Active”. In experiment [3], the Ki result is on record as “Not Active”.
For `O=C(O)P(=O)(O)O` [FOSCARNET], the IC50 result (in experiment [1] (hek293); on B2 bradykinin receptor; at Calcitonin receptor; in experiment [2]; at D(3) dopamine receptor (cho); on D(4) dopamine receptor) was “Not Active” each time. Besides, the IC50 entry in experiment [3] is “Not Active”. The Ki result in experiment [3] is recorded as “Not Active”.
Regarding `Cc1ccc(C)c(OCCCC(C)(C)C(=O)O)c1` [GEMFIBROZIL], the IC50 entry (in experiment [1] (hek293); against B2 bradykinin receptor; on Calcitonin receptor; in experiment [2]; at D(3) dopamine receptor (cho); at D(4) dopamine receptor) was “Not Active” throughout. Moreover, in experiment [3], the IC50 result is reported as “Not Active”. The Ki entry in experiment [3] is recorded as “Not Active”.
As for `O=c1c(-c2ccc(O)cc2)coc2cc(O)cc(O)c12` [GENISTEIN], the IC50 entry (in experiment [1] (hek293); at B2 bradykinin receptor; at Calcitonin receptor; in experiment [2]; on D(3) dopamine receptor (cho); at D(4) dopamine receptor) was “Not Active” each time. Moreover, the IC50 entry in experiment [3] is listed as “Not Active”. In experiment [3], the Ki result was “Not Active”.
With `CCC1=C(C)CN(C(=O)NCCc2ccc(S(=O)(=O)NC(=O)N[C@H]3CC[C@H](C)CC3)cc2)C1=O` [GLIMEPIRIDE], the IC50 result (in experiment [1] (hek293); against B2 bradykinin receptor; at Calcitonin receptor; in experiment [2]; at D(3) dopamine receptor (cho); at D(4) dopamine receptor) was “Not Active” each time. In addition, in experiment [3], the IC50 entry is reported as “Not Active”. The Ki entry in experiment [3] is recorded as “Not Active”.
As for `Nc1cc(-c2ccncc2)c[nH]c1=O` [INAMRINONE], the IC50 entry (in experiment [1] (hek293); on B2 bradykinin receptor; at Calcitonin receptor; in experiment [2]; at D(3) dopamine receptor (cho); on D(4) dopamine receptor) was “Not Active” throughout. Besides, in experiment [3], the IC50 result is recorded as “Not Active”. For the same compound, in experiment [3], the Ki entry was “Not Active”.
As for `CCCCC1=NC2(CCCC2)C(=O)N1Cc1ccc(-c2ccccc2-c2nnn[nH]2)cc1` [IRBESARTAN], the IC50 entry (in experiment [1] (hek293); on B2 bradykinin receptor; on Calcitonin receptor; in experiment [2]; at D(3) dopamine receptor (cho); at D(4) dopamine receptor) was “Not Active” in each case. The IC50 result in experiment [3] is given as “Not Active”. Moreover, in experiment [3], the Ki result is “Not Active”.
